Measurements from PubChem BioAssay (NCI).
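Cultured in 96-well plates, cells were exposed to test compound for 48 hours across five concentrations. TGI is the concentration that stops growth completely.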

What was measured:
Assay in all cases: NCI anticancer screen, dose series, 48 h
KM12 colon = tested on: KM12 colon
COLO 205 colon = tested on: COLO 205 colon
SF-268 CNS = tested on: SF-268 CNS
CAKI-1 renal = tested on: CAKI-1 renal
MOLT-4 leukemia = tested on: MOLT-4 leukemia
RPMI-8226 leukemia = tested on: RPMI-8226 leukemia
CCRF-CEM leukemia = tested on: CCRF-CEM leukemia
A549 NSCLC = tested on: A549 NSCLC
MDA-MB-231 breast = tested on: MDA-MB-231 breast
OVCAR-8 ovarian = tested on: OVCAR-8 ovarian
TK-10 renal = tested on: TK-10 renal
HS 578T breast = tested on: HS 578T breast
U251 CNS = tested on: U251 CNS
K-562 leukemia = tested on: K-562 leukemia
HOP-92 NSCLC = tested on: HOP-92 NSCLC
SR leukemia = tested on: SR leukemia
HT29 colon = tested on: HT29 colon
SF-539 CNS = tested on: SF-539 CNS
IGROV1 ovarian = tested on: IGROV1 ovarian
HCT-116 colon = tested on: HCT-116 colon
SK-MEL-28 melanoma = tested on: SK-MEL-28 melanoma
HL-60(TB) leukemia = tested on: HL-60(TB) leukemia
ACHN renal = tested on: ACHN renal
SNB-19 CNS = tested on: SNB-19 CNS
OVCAR-3 ovarian = tested on: OVCAR-3 ovarian
SF-295 CNS = tested on: SF-295 CNS
PC-3 prostate = tested on: PC-3 prostate
MDA-N = tested on: MDA-N
SW-620 colon = tested on: SW-620 colon
SK-OV-3 ovarian = tested on: SK-OV-3 ovarian
OVCAR-4 ovarian = tested on: OVCAR-4 ovarian
MDA-MB-435 = tested on: MDA-MB-435
HOP-62 NSCLC = tested on: HOP-62 NSCLC
SK-MEL-5 melanoma = tested on: SK-MEL-5 melanoma
UACC-257 melanoma = tested on: UACC-257 melanoma
M14 melanoma = tested on: M14 melanoma
786-0 renal = tested on: 786-0 renal
SN12C renal = tested on: SN12C renal
BT-549 breast = tested on: BT-549 breast
MCF7 breast = tested on: MCF7 breast
NCI/ADR-RES ovarian = tested on: NCI/ADR-RES ovarian
NCI-H23 lung = tested on: NCI-H23 lung
LOX IMVI melanoma = tested on: LOX IMVI melanoma
T-47D breast = tested on: T-47D breast
HCT-15 colon = tested on: HCT-15 colon
NCI-H522 lung = tested on: NCI-H522 lung
UACC-62 melanoma = tested on: UACC-62 melanoma
OVCAR-5 ovarian = tested on: OVCAR-5 ovarian
HCC-2998 colon = tested on: HCC-2998 colon
DU-145 prostate = tested on: DU-145 prostate
MALME-3M melanoma = tested on: MALME-3M melanoma
SNB-75 CNS = tested on: SNB-75 CNS
RXF 393 renal = tested on: RXF 393 renal
EKVX NSCLC = tested on: EKVX NSCLC
UO-31 renal = tested on: UO-31 renal
NCI-H460 lung = tested on: NCI-H460 lung
SK-MEL-2 melanoma = tested on: SK-MEL-2 melanoma
NCI-H226 lung = tested on: NCI-H226 lung
A498 renal = tested on: A498 renal

What does the source list for `CN1C(=O)c2cccc3cc([N+](=O)[O-])cc(c23)C1=O`?
TGI (KM12 colon): > 10 µM; TGI (COLO 205 colon): > 10 µM; TGI (SF-268 CNS): > 10 µM; TGI (CAKI-1 renal): > 10 µM; TGI (MOLT-4 leukemia): > 10 µM; TGI (RPMI-8226 leukemia): > 10 µM; TGI (CCRF-CEM leukemia): > 10 µM; TGI (A549 NSCLC): > 10 µM; TGI (MDA-MB-231 breast): > 10 µM; TGI (OVCAR-8 ovarian): > 10 µM; TGI (TK-10 renal): > 10 µM; TGI (HS 578T breast): > 10 µM; TGI (U251 CNS): > 10 µM; TGI (K-562 leukemia): > 10 µM; TGI (HOP-92 NSCLC): > 10 µM; TGI (SR leukemia): > 10 µM; TGI (HT29 colon): > 10 µM; TGI (SF-539 CNS): > 10 µM; TGI (IGROV1 ovarian): > 10 µM; TGI (HCT-116 colon): > 10 µM; TGI (SK-MEL-28 melanoma): > 10 µM; TGI (HL-60(TB) leukemia): > 10 µM; TGI (ACHN renal): > 10 µM; TGI (SNB-19 CNS): > 10 µM; TGI (OVCAR-3 ovarian): > 10 µM; TGI (SF-295 CNS): > 10 µM; TGI (PC-3 prostate): > 10 µM; TGI (MDA-N): > 10 µM; TGI (SW-620 colon): > 10 µM; TGI (SK-OV-3 ovarian): > 10 µM; TGI (OVCAR-4 ovarian): > 10 µM; TGI (MDA-MB-435): > 10 µM; TGI (HOP-62 NSCLC): > 10 µM; TGI (SK-MEL-5 melanoma): > 10 µM; TGI (UACC-257 melanoma): > 10 µM; TGI (M14 melanoma): > 10 µM; TGI (786-0 renal): > 10 µM; TGI (SN12C renal): > 10 µM; TGI (BT-549 breast): > 10 µM; TGI (MCF7 breast): > 10 µM; TGI (NCI/ADR-RES ovarian): > 10 µM; TGI (NCI-H23 lung): > 10 µM; TGI (LOX IMVI melanoma): > 10 µM; TGI (T-47D breast): > 10 µM; TGI (HCT-15 colon): > 10 µM; TGI (NCI-H522 lung): > 10 µM; TGI (UACC-62 melanoma): > 10 µM; TGI (OVCAR-5 ovarian): > 10 µM; TGI (HCC-2998 colon): > 10 µM; TGI (DU-145 prostate): > 10 µM; TGI (MALME-3M melanoma): > 10 µM; TGI (SNB-75 CNS): > 10 µM

`Oc1c(CN2CCOCC2)ccc2cccnc12` was tested. Which TGI (RXF 393 renal) did it give?
Its TGI is greater than 10 µM.

And the TGI (EKVX NSCLC)?
Its TGI is greater than 10 µM.

And the TGI (UO-31 renal)?
Its TGI is greater than 10 µM.

What about the TGI (KM12 colon) of the same compound?
The TGI was greater than 10 µM.

What about the TGI (COLO 205 colon) of the same compound?
Its TGI is greater than 10 µM.

What about the TGI (SF-268 CNS) of the same compound?
Its TGI is greater than 10 µM.

What about the TGI (CAKI-1 renal) of the same compound?
The TGI was greater than 10 µM.

And the TGI (MOLT-4 leukemia)?
Its TGI is greater than 10 µM.

And the TGI (RPMI-8226 leukemia)?
The TGI was greater than 10 µM.

And the TGI (CCRF-CEM leukemia)?
The TGI was 7.56 µM.

And the TGI (A549 NSCLC)?
The TGI was greater than 10 µM.

And the TGI (MDA-MB-231 breast)?
The TGI was greater than 10 µM.

And the TGI (OVCAR-8 ovarian)?
Its TGI is greater than 10 µM.

What about the TGI (TK-10 renal) of the same compound?
The TGI was greater than 10 µM.

And the TGI (HS 578T breast)?
The TGI was greater than 10 µM.

And the TGI (U251 CNS)?
The TGI was greater than 10 µM.

What about the TGI (NCI-H460 lung) of the same compound?
The TGI was greater than 10 µM.

And the TGI (K-562 leukemia)?
The TGI was greater than 10 µM.

What about the TGI (HOP-92 NSCLC) of the same compound?
Its TGI is greater than 10 µM.

What about the TGI (HT29 colon) of the same compound?
Its TGI is greater than 10 µM.

And the TGI (SF-539 CNS)?
The TGI was greater than 10 µM.

What about the TGI (IGROV1 ovarian) of the same compound?
The TGI was greater than 10 µM.

What about the TGI (HCT-116 colon) of the same compound?
Its TGI is greater than 10 µM.

And the TGI (SK-MEL-28 melanoma)?
Its TGI is greater than 10 µM.

And the TGI (ACHN renal)?
Its TGI is greater than 10 µM.

And the TGI (SNB-19 CNS)?
Its TGI is greater than 10 µM.

What about the TGI (OVCAR-3 ovarian) of the same compound?
Its TGI is greater than 10 µM.

And the TGI (SF-295 CNS)?
Its TGI is greater than 10 µM.

And the TGI (PC-3 prostate)?
The TGI was greater than 10 µM.

What about the TGI (MDA-N) of the same compound?
The TGI was greater than 10 µM.

What about the TGI (SW-620 colon) of the same compound?
The TGI was greater than 10 µM.

And the TGI (SK-OV-3 ovarian)?
Its TGI is greater than 10 µM.

And the TGI (OVCAR-4 ovarian)?
The TGI was greater than 10 µM.

What about the TGI (MDA-MB-435) of the same compound?
The TGI was greater than 10 µM.

What about the TGI (SK-MEL-2 melanoma) of the same compound?
Its TGI is greater than 10 µM.

What about the TGI (HOP-62 NSCLC) of the same compound?
Its TGI is greater than 10 µM.

What about the TGI (SK-MEL-5 melanoma) of the same compound?
The TGI was greater than 10 µM.

And the TGI (UACC-257 melanoma)?
Its TGI is greater than 10 µM.

And the TGI (NCI-H226 lung)?
Its TGI is greater than 10 µM.

And the TGI (A498 renal)?
The TGI was greater than 10 µM.

And the TGI (M14 melanoma)?
Its TGI is greater than 10 µM.

What about the TGI (786-0 renal) of the same compound?
Its TGI is greater than 10 µM.

What about the TGI (SN12C renal) of the same compound?
The TGI was greater than 10 µM.

And the TGI (BT-549 breast)?
Its TGI is 8.26 µM.

And the TGI (MCF7 breast)?
Its TGI is greater than 10 µM.

And the TGI (NCI/ADR-RES ovarian)?
Its TGI is 6.6 µM.

What about the TGI (NCI-H23 lung) of the same compound?
The TGI was greater than 10 µM.

What about the TGI (LOX IMVI melanoma) of the same compound?
Its TGI is greater than 10 µM.

What about the TGI (T-47D breast) of the same compound?
The TGI was greater than 10 µM.

What about the TGI (HCT-15 colon) of the same compound?
The TGI was greater than 10 µM.

And the TGI (NCI-H522 lung)?
The TGI was 7.81 µM.

What about the TGI (OVCAR-5 ovarian) of the same compound?
The TGI was greater than 10 µM.

And the TGI (HCC-2998 colon)?
Its TGI is greater than 10 µM.

And the TGI (DU-145 prostate)?
The TGI was greater than 10 µM.

And the TGI (MALME-3M melanoma)?
The TGI was greater than 10 µM.

And the TGI (SNB-75 CNS)?
Its TGI is greater than 10 µM.
